Results taken from patent US5880256A, “Factor VIIa inhibitors from Kunitz domain proteins” (Genentech, Inc., priority 1995, dated 1999).
Positions of bridges follow the written chain, without caps; N, C: chain ends. No end group written: not given here.

Columns and labels:
[1] = tested on: New Zealand white rabbits; experiment: Cuticle bleeding time in the rabbit model; assay type: in vivo; details: for bleeding compared to the saline control (in words): after 10 minutes
Description: Male New Zealand white rabbits (~4 kg) were anesthetized to surgical anesthesia plane with an IM injection of Ketamine / Xylaxine. The rabbits were placed supine on a restraining board, warmed to 37° C., and the neck and inner thigh area shaved. Teflon catheters were replaced in a marginal ear vein and femoral artery for drug delivery and sample collection respectively. Prior to treatment, blood samples were collected for coagulation tests (APTT and PT). Bleeding time was assessed from a cut made in the cuticle portion of a hind limb nail. Incisions were made in the neck region and the entire left common carotid artery and its branches were surgically isolated. An ultrasonic flow probe (Transonics®) was placed on the common carotid approximately 5 cm caudal to the common--internal bifurcation. After blood flow reached a stable baseline, drugs (saline or test compounds) were delivered via the marginal ear vein. A deflated embolectomy catheter (Fogarty®, 3F) was then introduced into the lumen of the common via an incision in the lingual branch. Blood flow through the artery was stopped briefly while the catheter was introduced and loosely secured with 2-0 silk tie at the incision site. After the catheter was in place and secure, blood flow was restored. The deflated balloon was advanced to within 2 mm of the flow probe and inflated with saline until resistance of the vessel wall was felt. The catheter was pulled back with a steady motion to the first branch and then deflated. This procedure was repeated a total of six times for each experimental animal, after which the catheter was removed. […] Over 40 minutes, blood samples were taken for APTT and PT measurements, cuticle bleeding times were assessed and blood flow through the carotid monitored. Duration of patency was defined as the total amount of time (maximum=40 minutes) that any measurable blood flow is detected in the artery. Patency rate refers to the percentage of animals tested who had carotid artery blood flow≥5 minutes. […] If any thrombus was present, it was removed, blotted and the weight recorded. […]

[2] = tested on: New Zealand white rabbits; experiment: Rabbit deep medial injury model (carotid artery patency, thrombus weight); assay type: in vivo
Description: Male New Zealand white rabbits (~4 kg) were anesthetized to surgical anesthesia plane with an IM injection of Ketamine / Xylaxine. The rabbits were placed supine on a restraining board, warmed to 37° C., and the neck and inner thigh area shaved. Teflon catheters were replaced in a marginal ear vein and femoral artery for drug delivery and sample collection respectively. Prior to treatment, blood samples were collected for coagulation tests (APTT and PT). Bleeding time was assessed from a cut made in the cuticle portion of a hind limb nail. Incisions were made in the neck region and the entire left common carotid artery and its branches were surgically isolated. An ultrasonic flow probe (Transonics®) was placed on the common carotid approximately 5 cm caudal to the common--internal bifurcation. After blood flow reached a stable baseline, drugs (saline or test compounds) were delivered via the marginal ear vein. A deflated embolectomy catheter (Fogarty®, 3F) was then introduced into the lumen of the common via an incision in the lingual branch. Blood flow through the artery was stopped briefly while the catheter was introduced and loosely secured with 2-0 silk tie at the incision site. After the catheter was in place and secure, blood flow was restored. The deflated balloon was advanced to within 2 mm of the flow probe and inflated with saline until resistance of the vessel wall was felt. The catheter was pulled back with a steady motion to the first branch and then deflated. This procedure was repeated a total of six times for each experimental animal, after which the catheter was removed. […] Over 40 minutes, blood samples were taken for APTT and PT measurements, cuticle bleeding times were assessed and blood flow through the carotid monitored. Duration of patency was defined as the total amount of time (maximum=40 minutes) that any measurable blood flow is detected in the artery. Patency rate refers to the percentage of animals tested who had carotid artery blood flow≥5 minutes. At the end of the experiment the rabbit was euthanized and the carotid artery removed and opened. If any thrombus was present, it was removed, blotted and the weight recorded.
[Heparin was dosed as a 25 u/kg bolus followed by a continuous infusion of 1) 0.5 u/kg/min or 2) 1 u/kg/min. Other reagents were given as a 2 mg/kg IV bolus. With the exception of the patency data, values are expressed as means ±sem.]

[3] = tested on: normal human plasma; experiment: Activated partial thromboplastin time (APTT) assay, initiated by ellagic acid; assay type: biochemical
Description: For the activated partial thromboplastin time (APTT) assays, the activation time was set at 120 sec and acquisition time at 300 to 600 sec depending on the expected outcome of the assay. Citrated normal human plasma and inhibitor were incubated together. The sample (plasma and inhibitor) and activator (Instrumentation Laboratories Ellagic acid/Phospholipid mix Test Reagent) were automatically pipetted and incubated together for 2 min at 37° C., then CaCl2 was added and clotting time determined by means of optical assessment. The total incubation time of inhibitor with plasma was ca. 3 min before addition of activator, and 5 min before addition of CaCl2.

## CC[C@H](C)[C@@H]1NC(=O)[C@H](CC(C)C)NC(=O)[C@H](C)NC(=O)[C@H](CCCNC(=N)N)NC(=O)[C@@H]2CSSC[C@@H]3NC(=O)CNC(=O)CNC(=O)[C@H](Cc4ccc(O)cc4)NC(=O)[C@H](Cc4ccccc4)NC(=O)[C@H](Cc4ccccc4)NC(=O)[C@@H]4CCCN4C(=O)[C@H](C)NC(=O)[C@H](CSSC[C@H](NC(=O)[C@H](Cc4ccc(O)cc4)NC(=O)[C@H](CCC(=O)O)NC(=O)[C@H](CCC(=O)O)NC(=O)[C@H]([C@@H](C)O)NC(=O)[C@H](CC(=O)O)NC(=O)[C@H](Cc4ccccc4)NC(=O)[C@H](CC(N)=O)NC(=O)[C@H](CC(N)=O)NC(=O)[C@H](CCCNC(=N)N)NC(=O)[C@H](CC(N)=O)NC(=O)CNC(=O)[C@H](Cc4ccc(O)cc4)NC3=O)C(=O)N[C@@H](C)C(=O)N[C@@H](C)C(=O)N[C@@H](C(C)C)C(=O)N[C@H](C(=O)NCC(=O)N[C@@H](CO)C(=O)N[C@@H](C)C(=O)O)CSSC[C@H](NC(=O)[C@@H](NC(=O)[C@H](CCC(=O)O)NC(=O)[C@H](CCCNC(=N)N)NC(=O)[C@@H](N)C(C)C)C(C)C)C(=O)N[C@@H](CO)C(=O)N[C@@H](CCC(=O)O)C(=O)N[C@@H](CCC(N)=O)C(=O)N[C@@H](C)C(=O)N[C@@H](CCC(=O)O)C(=O)N3CCC[C@H]3C(=O)NCC(=O)N3CCC[C@H]3C(=O)N2)NC(=O)[C@H](CCCCN)NC(=O)CNC(=O)[C@H](CCC(=O)O)NC(=O)[C@H]([C@@H](C)O)NC(=O)[C@H](C(C)C)NC(=O)[C@H](CC(=O)O)NC(=O)[C@H](Cc2ccccc2)NC(=O)[C@H](Cc2ccc(O)cc2)NC(=O)[C@H](Cc2c[nH]c3ccccc23)NC(=O)[C@H](CCCNC(=N)N)NC(=O)[C@H](CC(C)C)NC1=O [TF7I-C]
[1]
  bleeding compared to the saline control (in words): did not induce prolonged bleeding

## APPI: Alzheimer's amyloid β-protein precursor inhibitor, 58 residue Kunitz domain, wild type (SEQ ID NO: 34) (VREVCSEQAETGPCRAMISRWYFDVTEGKCAPFFYGGCGGNRNNFDTEEYCMAVCGSA)
[2]; rabbit, 2 mg/kg IV bolus, animals with carotid blood flow ≥5 minutes
  Patency (%): 40%
[2]; rabbit, 2 mg/kg IV bolus, maximum 40 minutes, mean ± sem
  Patency Duration: 13.4 ± 8.5 min
[2]; rabbit, 2 mg/kg IV bolus, thrombus weight, mean ± sem
  Clot (mgs): 49.5 ± 18.2 mgs
[1]; in vivo, iv, 2 mg/kg
  Cuticle bleeding time, fold increase over pre dose: 2.2 ± 0.6 fold
[3]; 40 μM inhibitor, uninhibited clotting time 31 s
  APTT clotting time, fold prolongation: 3.6 fold
[3]; ca. 7 μM inhibitor
  APTT clotting time, fold prolongation: ca. 3 fold

## Heparin
[2]; rabbit deep medial injury model
  patency and clot size compared to the saline control (in words): significantly prolonged patency and reduced clot size
[2]; rabbit, Heparin 1: 25 u/kg bolus then 0.5 u/kg/min infusion
  Patency (%): 67%
[2]; rabbit, Heparin 1: 25 u/kg bolus then 0.5 u/kg/min infusion, mean ± sem
  Patency Duration: 23.3 ± 6.7 min
[2]; rabbit, Heparin 2: 25 u/kg bolus then 1 u/kg/min infusion
  Patency (%): 100%
[2]; rabbit, Heparin 2: 25 u/kg bolus then 1 u/kg/min infusion, mean ± sem
  Patency Duration: 35.2 ± 2.2 min

## VREVCSEQAEPGPCRAMMKRWYFDVTEGKCAPFIYGGCYGNRNNFDTEEYCAAVCGSA (disulfide 5-55, 14-38, 30-51) [IV-49C]
[1]
  bleeding compared to the saline control (in words): did not induce prolonged bleeding
